{"source": "patent US5716934A", "about": "“Eck receptor ligands” (Amgen Inc., priority 1995, dated 1998)", "system": "eck receptor (p130^eck)", "experiment": "p130eck autophosphorylation in LIM 2405 cells", "type": "cell-based, human", "details": "for eck receptor phosphorylation: intact LIM 2405 cells, 10-15 min at 37° C.", "protocol": "The LIM 2405 colorectal carcinoma cell line (Whitehead et al. Immunol. and Cell Biol. 70, 227 (1992)) was maintained in RPMI 1640 containing 5% FBS, 1 μg/ml insulin, 10 μg/ml hydrocortisone and 10 μM α-thioglycerol, and subpassaged by trypsination and dilution (1:5) into fresh media. Prior to assay 2.5×10^5 LIM 2405 cells were seeded into 6-well dishes (Falcon #3046) and incubated for 24 hr at 37° C. The media was discarded and replaced with serum-free RPMI 1640 containing 0.03% BSA, 1 μg/ml insulin, 10 μg/ml hydrocortisone and 10 μM α-thioglycerol, then incubated for 12-18 hr. In some experiments the cell cultures were labelled with ^32 P-orthophosphate (2 mCi/ml) in phosphate-free RPMI 1640 (Flow) for 2-3 hr prior to treatment. Growth factor stock solutions were prediluted at varying concentrations into 2.0 ml of serum-free media, then warmed to 37° C. Cell cultures were removed from the incubator, and the supernatant media discarded. Treatments were promptly added and the cell cultures incubated at 37° C. for 10-15 min. The cultures were then removed from the incubator, placed on ice, and the culture supernatant aspirated.\nThe treated cell cultures were chilled to 0° C. then washed once with ice-cold PBS (GIBCO). The residual PBS was aspirated and the cells were lysed by the addition of 1.0 ml of ice-cold RIPA buffer (10 mM sodium phosphate, pH 7.4, 150 mM sodium chloride, 0.1% sodium dodecyl sulfate, 1% NP-40, 1% deoxycholate, 1% Trasylol, 2 mM EDTA, 50 mM sodium fluoride and 100 mM sodium orthovanadate). After a 10 min incubation the lysates were transferred to 1.5 ml tubes and clarified by centrifugation for 30 min at 10,000×g. The clarified lysate supernatants were transferred to new tubes and immunoprecipitated with 1.0 μg/ml of affinity purified rabbit anti-Eck C-terminal domain antibody for 2 hr at 0° C. Immune complexes were adsorbed to Protein-G Sepharose beads (Pharmacia) at 4° C. for 30 min, washed twice with ice-cold RIPA buffer, once with 0.1M Tris-HCl, pH 8.0, containing 0.5M LiCl, and once with RIPA. The resulting immunoprecipitates were solubilized with SDS-PAGE sample buffer and stored for further analysis.\nThe anti-eck immunoprecipitates from treated and untreated LIM 2405 cell lysates were resolved on 7.5% polyacrylamide gels as previously described (Boyle et al. Meth. Enzymol. 201, 110 (1991)). […] Immune complexes were detected by chemiluminescent exposure (ECL, Amersham) to Kodak X-OMAT X-ray film at room temperature for 0.5-5 min.\nEck receptor immunoprecipitates from ^32 P-labelled LIM 2405 cells were resolved by SDS-PAGE, and the gel dried directly without fixation. After exposure to X-ray film the labelled eck receptor band was isolated and phosphoamino acid content determined as described (Boyle et al. Meth. Enzymol. 201, 110 (1991))"}
{"substance": "CHO-EBP: recombinant EBP purified from supernatants of CHO cells transfected with the EBP gene; mainly EBP^1-150 and EBP^1-159", "values": [{"measurement": "total cellular eck protein levels", "setting": "LIM 2405 cells after exposure to soluble EBP", "result": "modest dose-dependent decrease"}, {"measurement": "eck receptor phosphorylation", "setting": "listed as CHO cell-derived rEBP", "result": "stimulated eck receptor phosphorylation"}, {"measurement": "eck receptor phosphorylation", "setting": "listed as CHO-derived rEBP", "result": "active in inducing phosphorylation"}]}
